Results taken from patent US10538561B2, “Peptide for treating inflammatory diseases” (priority 2015, dated 2020).

Legend:
JAK1 = JAK1 (Homo sapiens, UniProt P23458); experiment: Biochemical kinase assay JAK1
Protocol: Test system: cell free assays; test items: IS181; concentrations tested: 1 ng/ml-5000 μg/ml; Kinases: a) Cell free assays: EGFR (ErbB1); FLT1 (VEGFR1); JAK1; JAK3 MAP2K1 (MEK1); PDGFRA (PDGFR alpha); PRKCA (PKC alpha); b) cell based assay: JAK-STAT.

[1] = tested on: Human Keratinocytes (HaCaT); experiment: TUNEL assay; assay type: cell-based; details: 48 h
Protocol: Cell lines: Human Keratinocytes (HaCaT); test item (TI): IS181; treatment regimen: treated twice (once after 24 hours)-48 hours; Concentration range: 100 6 g/ml-5000 6 g/ml. […] Cells were sera starved in 1% FBS for 24 hours. Cells were treated with IS181 for 24 hours. After 24 h, cells were again treated with IS181 for 24 hours. After 48 h of first treatment, cells were processed for TUNEL staining. Fold increase in apoptotic cells [TUNEL positive] was calculated with respect to untreated control cells. Positive control: Curcumin, Anthralin, Betullinic acid. […] No increase in TUNEL positive cells was observed from 100 μg/ml-2000 μg/ml.

TARC = experiment: TNF-α stimulated TARC secretion in HaCaT; assay type: cell-based, Human; details: for TARC % decrease with respect to TNF-α / TARC Conc: HaCaT + TNF-α, 24 h
Protocol: Effect on pro-inflammatory cytokines against TNF-α/LPS+PMA stimulation: TNF-α; IFN-γ; TARC; TSLP; IL-6; IL-8: Cell lines: Human keratinocytes (HaCaT); test item (TI); IS181; experimental steps: pre-treatment of cells with TI for 2 hours; stimulation with TNF-α: 20 ng/ml; stimulation with LPS+PMA-10 μg/ml LPS+40 ng/ml PMA; supernatant collection for cytokine analysis after 24 hours; concentration range: 0.1 μg/ml-100 μg/ml (duplicate wells); cytokines: TNF-α; IFN-γ; TARC; TSLP; IL-6; IL-8. Method of estimating cytokines: ELISA; positive control: dexamethasone.
Cell line: HaCaT (Human Keratinocytes); TI Treatment regimen: Pretreatment for 2 h; TI Concentration range: 0.1 μg/ml-100 μg/ml (duplicate wells); TNF-α stimulation: 20 ng/ml; LPS+PMA stimulation: 10 μg/ml LPS+40 ng/ml PMA; Time point for supernatants collection: 24 h; Method of estimation: ELISA; Positive control: Dexamethasone

IL-23 = IL-23 secretion in LPS+IFN-γ stimulated THP-1; assay type: cell-based, Human; details: THP-1 + LPS + IFN-γ, 24 h
Protocol: Cell lines: Human monocytic cell line (THP-1); test item: IS181: treatment regimen; single addition—24 hours; concentration range: 10 μg/ml-5000 μg/ml. A) Identification of non-cytotoxic concentrations: THP-1 cells were treated with IS181 for 24 hours; effect on cell viability was assessed by MTT assay; concentrations leading to >75% cell viability were selected for IL-23 assay. […] Positive control: curcumin. […] Since supernatants corresponding to 5 concentrations were to be tested for […], we also tested 1 mg/ml.

IL-1-β = experiment: LPS stimulated IL-1-β secretion in RAW264.7; assay type: cell-based, Mouse; details: for IL-1-β % decrease with respect to LPS / IL-1-β Conc: RAW264.7 + LPS, 24 h
Protocol: Effect on pro-inflammatory cytokines against LPS stimulation: TNF-α; IL-6; IL-1-β: Cell lines: Murine macrophage cell line (RAW264.7); test item: IS181; experimental steps: pretreatment of cells with TI for 2 hours; stimulation with LPS (100 ng/ml) for 24 hours; supernatant collection for cytokine analysis; concentration range: o.1 μg/ml-500 μg/ml (duplicate wells); Cytokines: TNF-α; IL-6; IL-1-β; Method of estimating cytokines: ELISA; positive control: dexamethasone.
Cell line: RAW264.7 (Mouse macrophages); TI treatment regimen: Pretreatment for 2 h; TI Concentration range: 0.1 μg/ml-500 μg/ml (duplicate wells); LPS stimulation: 100 ng/ml; Time point for supernatants collection: 24 h; Method of estimation: ELISA; Positive control: Dexamethasone

8-oxo-G = experiment: UVB damage: 8-oxo-G formation (ELISA); assay type: cell-based, human; details: HaCaT, UVB 30 mJ/cm2, 5 μg/ml
Protocol: Effect on Cyclobutane Pyrimidine Dimers (CPD); Effect on 8-oxo-G formation: Cell line: HaCaT (human keratinocytes); test items: IS 181; concentration range: 0.1-100 μg/ml (Duplicate wells). Method of estimation: Plating of cells; Sera starvation with 0.1% FBS (24 hours); treatment of cells with test items (24 hours); UVB damage (30 mJ/cm2)+Test items addition (24 hours); Cyclobutane pyrimidine dimers (CPD) and 8-oxo-G estimation using ELISA.

JAK1, sequence (P23458 whole entry): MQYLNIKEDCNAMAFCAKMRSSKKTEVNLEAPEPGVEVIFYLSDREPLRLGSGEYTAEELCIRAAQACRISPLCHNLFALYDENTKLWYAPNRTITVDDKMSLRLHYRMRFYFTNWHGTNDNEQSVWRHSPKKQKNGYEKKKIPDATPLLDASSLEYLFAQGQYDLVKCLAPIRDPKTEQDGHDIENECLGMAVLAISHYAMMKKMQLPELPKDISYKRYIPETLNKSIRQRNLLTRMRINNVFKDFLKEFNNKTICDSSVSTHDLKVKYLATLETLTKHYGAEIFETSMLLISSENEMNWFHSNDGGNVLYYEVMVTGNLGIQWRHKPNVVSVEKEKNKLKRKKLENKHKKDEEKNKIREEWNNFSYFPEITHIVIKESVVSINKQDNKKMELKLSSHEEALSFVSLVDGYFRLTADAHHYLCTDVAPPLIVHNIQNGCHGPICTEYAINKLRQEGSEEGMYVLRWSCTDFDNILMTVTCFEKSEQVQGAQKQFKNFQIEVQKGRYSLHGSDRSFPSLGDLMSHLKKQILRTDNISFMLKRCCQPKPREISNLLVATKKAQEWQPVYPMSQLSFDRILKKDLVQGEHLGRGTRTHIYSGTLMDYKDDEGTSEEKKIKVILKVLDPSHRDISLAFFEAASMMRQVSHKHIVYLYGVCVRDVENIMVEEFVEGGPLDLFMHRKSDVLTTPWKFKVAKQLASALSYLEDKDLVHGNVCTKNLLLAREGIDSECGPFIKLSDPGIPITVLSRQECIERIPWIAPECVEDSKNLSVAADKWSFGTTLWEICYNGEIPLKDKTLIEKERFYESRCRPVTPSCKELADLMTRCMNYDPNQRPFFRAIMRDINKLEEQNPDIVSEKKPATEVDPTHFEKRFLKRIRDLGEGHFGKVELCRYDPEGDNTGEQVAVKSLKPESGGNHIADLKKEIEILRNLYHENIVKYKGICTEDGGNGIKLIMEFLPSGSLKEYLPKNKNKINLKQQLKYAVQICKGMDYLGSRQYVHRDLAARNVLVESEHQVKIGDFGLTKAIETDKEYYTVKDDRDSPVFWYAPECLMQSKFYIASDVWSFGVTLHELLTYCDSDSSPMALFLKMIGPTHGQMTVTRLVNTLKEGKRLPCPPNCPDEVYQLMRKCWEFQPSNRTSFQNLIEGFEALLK

H-WVQRVVEKFLK-OH [IS181, H-Trp-Val-Gln-Arg-Val-Val-Glu-Lys-Phe-Leu-Lys-OH]
inhibition at 10 µg/mL (JAK1; 10 μg/ml): 14% | inhibition at 50 µg/mL (JAK1; cell free, 50 μg/ml): 14% | inhibition at 100 µg/mL (JAK1; cell free, 100 μg/ml): -42% | inhibition at 250 µg/mL (JAK1; cell free, 250 μg/ml): -93% | inhibition at 500 µg/mL (JAK1; cell free, 500 μg/ml): -185% | increase in TUNEL positive cells ([1]; 100 μg/ml-2000 μg/ml): No increase | increase in apoptotic cells (TUNEL positive population) vs untreated ([1]; 5000 μg/ml): 28.3% | TARC inhibition (TARC; HaCaT): good extent of IFN-γ and TARC inhibition | TARC % decrease with respect to TNF-α (TARC; 0.1 μg/ml): 28.6% | TARC Conc (TARC; 0.1 μg/ml): 43.2 pg/mL | TARC % decrease with respect to TNF-α (TARC; 1 μg/ml): 11.3% | TARC Conc (TARC; 1 μg/ml): 53.6 pg/mL | TARC % decrease with respect to TNF-α (TARC; 5 μg/ml): 1.5% | TARC Conc (TARC; 5 μg/ml): 59.5 pg/mL | TARC % decrease with respect to TNF-α (TARC; 10 μg/ml): 5.3% | TARC Conc (TARC; 10 μg/ml): 57.3 pg/mL | TARC % decrease with respect to TNF-α (TARC; 100 μg/ml): −22.6% | TARC Conc (TARC; 100 μg/ml): 74.1 pg/mL | % Inhibition of IL-23 wrt Control (LPS + IFN-γ) (IL-23; 10 μg/ml): 69.8% | Conc. of IL-23 (IL-23; 10 μg/ml): 25.4 pg/mL | % Inhibition of IL-23 wrt Control (LPS + IFN-γ) (IL-23; 50 μg/ml): 66.3% | Conc. of IL-23 (IL-23; 50 μg/ml): 25.3 pg/mL | % Inhibition of IL-23 wrt Control (LPS + IFN-γ) (IL-23; 100 μg/ml): 72.3% | Conc. of IL-23 (IL-23; 100 μg/ml): 23.3 pg/mL | % Inhibition of IL-23 wrt Control (LPS + IFN-γ) (IL-23; 500 μg/ml): −10.9% | Conc. of IL-23 (IL-23; 500 μg/ml): 93.3 pg/mL | % Inhibition of IL-23 wrt Control (LPS + IFN-γ) (IL-23; 1000 μg/ml): 39.6% | Conc. of IL-23 (IL-23; 1000 μg/ml): 50.6 pg/mL | IL-1-β inhibition as compared to LPS stimulated levels (IL-1-β; RAW264.7): good extent of IL-1-β inhibition | IL-1-β % decrease with respect to LPS (IL-1-β; 0.1 μ/ml): 90.0% | IL-1-β Conc (IL-1-β; 0.1 μ/ml): 2.2 pg/mL | IL-1-β % decrease with respect to LPS (IL-1-β; 1 μ/ml): 30.3% | IL-1-β Conc (IL-1-β; 1 μ/ml): 15.4 pg/mL | IL-1-β % decrease with respect to LPS (IL-1-β; 5 μ/ml): 53.7% | IL-1-β Conc (IL-1-β; 5 μ/ml): 10.2 pg/mL | IL-1-β % decrease with respect to LPS (IL-1-β; 10 μ/ml): 71.9% | IL-1-β Conc (IL-1-β; 10 μ/ml): 6.2 pg/mL | IL-1-β % decrease with respect to LPS (IL-1-β; 100 μ/ml): 42.4% | IL-1-β Conc (IL-1-β; 100 μ/ml): 12.7 pg/mL | IL-1-β % decrease with respect to LPS (IL-1-β; 500 μ/ml): 72.6% | IL-1-β Conc (IL-1-β; 500 μ/ml): 6.1 pg/mL | decrease in IL-1-β level (IL-1-β; RAW264.7, 0.1 μg/ml-500 μg/ml): 30.3%-90% | % Decrease in 8-OCO-G formation with respect to UVB irradiated untreated cells (8-oxo-G): 15.5%
